Publication PMC7508162 (Frontiers in Pharmacology, 2020)

Legend:
NPP1 = target: T1, NPP1 (Homo sapiens, UniProt P22413); test: NPP1 assay with p-Nph-5'-TMP as substrate; format: biochemical; conditions: soluble NPP1; 400 µM p-Nph-5'-TMP; read-out: Ki ± SEM
T1 construct: the catalytic domains of the enzymes were amplified and sub-cloned into the expression vector pACGP67 A/B; made in house; host or cells: Sf9 insect cells
T1 sequence (P22413 98-925 limits assumed): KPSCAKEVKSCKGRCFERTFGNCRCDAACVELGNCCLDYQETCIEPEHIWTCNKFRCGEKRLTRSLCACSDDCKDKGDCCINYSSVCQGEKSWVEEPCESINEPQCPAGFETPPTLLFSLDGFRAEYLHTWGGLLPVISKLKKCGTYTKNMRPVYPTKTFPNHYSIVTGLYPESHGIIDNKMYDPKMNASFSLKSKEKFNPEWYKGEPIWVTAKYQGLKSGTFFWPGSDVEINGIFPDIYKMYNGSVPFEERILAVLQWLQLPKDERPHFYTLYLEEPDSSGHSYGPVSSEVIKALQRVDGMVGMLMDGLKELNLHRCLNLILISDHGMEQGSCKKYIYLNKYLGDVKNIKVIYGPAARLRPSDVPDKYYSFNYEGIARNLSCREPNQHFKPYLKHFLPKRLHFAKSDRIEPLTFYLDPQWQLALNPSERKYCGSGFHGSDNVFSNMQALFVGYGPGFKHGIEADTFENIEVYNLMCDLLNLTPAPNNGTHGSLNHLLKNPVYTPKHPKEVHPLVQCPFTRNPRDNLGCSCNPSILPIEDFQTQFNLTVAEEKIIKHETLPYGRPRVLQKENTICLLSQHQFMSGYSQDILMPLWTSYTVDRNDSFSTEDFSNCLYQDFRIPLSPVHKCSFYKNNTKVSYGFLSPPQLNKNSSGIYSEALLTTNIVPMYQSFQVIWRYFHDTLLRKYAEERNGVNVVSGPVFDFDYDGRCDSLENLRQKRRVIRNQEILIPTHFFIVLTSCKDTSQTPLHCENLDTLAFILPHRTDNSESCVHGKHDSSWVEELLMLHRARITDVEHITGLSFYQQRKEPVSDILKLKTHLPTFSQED
Source text: (§1) The cDNAs of the human enzymes NPP1, NPP3, NPP5, CD38 and CD73 (Genbank accession no. NM_006258, NM_005021, NM_021572, NM_ 001775, and NM_002526, respectively) were obtained from Origene (Rockville, USA). Soluble enzymes were produced as previously reported with some modifications ([Lee et al., 2015]; [Junker et al., 2019]). Briefly, the catalytic domains of the enzymes were amplified and sub-cloned into the expression vector pACGP67 A/B modified with the addition of 9 x histidine tag (His-tag) at the C-terminus (except for NPP1). The plasmids were transfected in Sf9 insect cells using Cellfectin™ II Reagent (Thermo Fisher Scientific, MA, USA) and ProEasy™ baculovirus linearized DNA (Cat.#A10S, AB Vector, LLC). Protein expression was conducted for 48 h at 27°C. The signal peptide sequence of the expression vector shuttled the proteins into the supernatant. The supernatant medium was collected, and the enzymes were purified using HisPur™ Ni^2+-NTA spin columns according to the manufacturer’s protocol. The protein concentration was determined by the method previously described by [Lowry et al. (1951)].
Inhibition of NPP1 was determined as previously described ([Lee et al., 2017b]). p-Nitrophenyl-5’-thymidine monophosphate (p-Nph-5’-TMP) was used as an artificial substrate which results in the formation of the p-nitrophenolate anion with an absorption maximum of 400 nm. Purified soluble NPP1 [0.36 µg, expressed in Sf9 insect cells as previously described ([Lee et al., 2015])] was mixed with test compound (20 µM final concentration for initial screening, 0.1–200 µM for determining concentration-dependent inhibition curves), 2% DMSO and 400 µM of p-Nph-5’-TMP as a substrate in a final volume of 100 µl. The mixture was incubated for 30 min at 37°C with gentle shaking, and the enzyme reaction was terminated by the addition of 20 µl of 1 M NaOH. The absorption was measured at 405 nm using a BMG PheraStar FS plate reader (BMG Labtech GmbH, Ortenberg, Germany).

human CD38 = target: T2, human CD38 (Homo sapiens, UniProt P28907); test: CD38 assay; format: biochemical; conditions: analogous to NPP3 and NPP5 assays; for Ki: read-out: Ki ± SEM
T2 construct: the catalytic domains of the enzymes were amplified and sub-cloned into the expression vector pACGP67 A/B; 9xHis (C); made in house; host or cells: Sf9 insect cells (baculovirus, pACGP67 A/B)
T2 sequence (P28907 43-300 limits assumed): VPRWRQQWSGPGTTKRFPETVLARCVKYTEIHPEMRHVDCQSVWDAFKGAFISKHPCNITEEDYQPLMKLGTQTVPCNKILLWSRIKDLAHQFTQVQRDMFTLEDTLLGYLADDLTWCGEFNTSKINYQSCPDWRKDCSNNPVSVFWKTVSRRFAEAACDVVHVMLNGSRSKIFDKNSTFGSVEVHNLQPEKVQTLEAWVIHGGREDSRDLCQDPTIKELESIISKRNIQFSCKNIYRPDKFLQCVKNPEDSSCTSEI
Source text: as §1
The assay operation was analogous to the NPP3 and NPP5 assays. The enzymatic reactions were performed in 10 mM HEPES reaction buffer (pH 7.2) using 8 ng of human CD38 (expressed in Sf9 insect cells) in analogy to a published procedure ([Blacher et al., 2015]).

SMILES	Ki (NPP1)	% inhibition (human CD38)	Ki (human CD38)
CCN(CC)c1ncnc2c1ncn2[C@@H]1O[C@H](COP(=O)(O)OP(=O)(O)C(Br)(Br)P(=O)(O)O)[C@@H](O)[C@H]1O [ARL67156, (Dibromo((((((2R,3S,4R,5R)-5-(6-(diethylamino)-9H-purin-9-yl)-3,4-dihydroxytetrahydrofuran-2-yl)methoxy)-(hydroxy)-phosphoryl)oxy)(hydroxy)phosphoryl)methyl)-phosphonic Acid, reference compound]	4.41 ± 3.53 µM	0%	> 10 µM
CCCCSc1nc2c(N)ncnc2n1[C@@H]1O[C@H](COP(=O)(O)OP(=O)(O)C(Br)(Br)P(=O)(O)O)[C@@H](O)[C@H]1O [Compound 31, (((((((2R,3S,4R,5R)-5-(6-Amino-8-(butylthio)-9H-purin-9-yl)-3,4-dihydroxytetrahydrofuran-2-yl)methoxy)(hydroxy)-phosphoryl)oxy)(hydroxy)phosphoryl)dibromomethyl)-phosphonic Acid]	5.17 ± 1.75 µM	7%	> 10 µM
CCCCNc1nc2c(NC)ncnc2n1[C@@H]1O[C@H](COP(=O)(O)OP(=O)(O)C(Br)(Br)P(=O)(O)O)[C@@H](O)[C@H]1O [Compound 33, (Dibromo((((((2R,3S,4R,5R)-5-(8-(butylamino)-6-(methylamino)-9H-purin-9-yl)-3,4-dihydroxy-tetrahydrofuran-2-yl)methoxy)(hydroxy)phosphoryl)oxy)-(hydroxy)phosphoryl)methyl)-phosphonic Acid]	7.68 ± 5.4 µM	6%	> 10 µM
